Reference: patent US11661426B2, “Imidazole-containing inhibitors of ALK2 kinase” (BioCryst Pharmaceuticals, Inc., priority 2017, dated 2023)

Molecular target: ALK2 (Homo sapiens (Human), UniProt Q04771)
Assay: ALK2 inhibition, LanthaScreen Eu Kinase Binding Assay (ThermoFisher Scientific / Life Technologies)
Settings: read-out: Measured Ki (IC50) Value for Compounds: IC50
Protocol: Biochemical assays to measure the inhibitory effects of the compounds were performed by ThermoFisher Scientific (Life Technologies). ALK2 inhibition was tested using LanthaScreen™ Eu Kinase Binding Assay screening protocol.

Sequence of ALK2 (Q04771 21-509): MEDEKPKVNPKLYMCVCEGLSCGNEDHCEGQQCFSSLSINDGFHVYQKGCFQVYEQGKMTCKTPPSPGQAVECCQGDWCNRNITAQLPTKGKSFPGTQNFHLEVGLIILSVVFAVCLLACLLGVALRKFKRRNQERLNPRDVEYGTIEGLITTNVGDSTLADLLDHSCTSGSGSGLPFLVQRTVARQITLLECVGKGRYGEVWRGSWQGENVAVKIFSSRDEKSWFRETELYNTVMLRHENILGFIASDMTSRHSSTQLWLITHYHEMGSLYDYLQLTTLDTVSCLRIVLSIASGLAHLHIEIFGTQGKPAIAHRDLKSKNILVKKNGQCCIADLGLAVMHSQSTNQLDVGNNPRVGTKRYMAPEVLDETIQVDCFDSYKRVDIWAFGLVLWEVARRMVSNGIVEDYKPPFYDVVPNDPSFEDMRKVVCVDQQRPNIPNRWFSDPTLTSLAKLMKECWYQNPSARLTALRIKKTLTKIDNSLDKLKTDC

Row | SMILES | IC50 [nM]
1 | N#CC1CC(n2cnc(Nc3nc(N4CCCC4c4ccccn4)nn4cccc34)c2)C1 (centres unmarked) [Compound 59c, 3-(4-((2-(2-(pyridin-2-yl)pyrrolidin-1-yl)pyrrolo[2,1-f][1,2,4]triazin-4-yl)amino)-1H-imidazol-1-yl)cyclobutanecarbonitrile] | 100 to 1000
2 | c1ccc(-n2cnc(Nc3nc(N4CCCC4c4ccccn4)nc4ccoc34)c2)cc1 (centres unmarked) [Compound 33a, N-(1-phenyl-1H-imidazol-4-yl)-2-(2-(pyridin-2-yl)pyrrolidin-1-yl)furo[3,2-d]pyrimidin-4-amine] | < 100
3 | COc1cc(-n2cnc(Nc3nc(N4CCN(C)CC4)nn4cccc34)c2)cc(OC)c1OC [Compound 334a, 2-(4-methylpiperazin-1-yl)-N-(1-(3,4,5-trimethoxyphenyl)-1H-imidazol-4-yl)pyrrolo[2,1-f][1,2,4]triazin-4-amine] | < 100
4 | COc1cc(F)c(CC(=O)N2CCN(c3nc(Nc4cn(-c5ccccc5)cn4)c4ccsc4n3)CC2)c(F)c1 [Compound 45d, 2-(2,6-difluoro-4-methoxyphenyl)-1-(4-(4-((1-phenyl-1H-imidazol-4-yl)amino)thieno[2,3-d]pyrimidin-2-yl)piperazin-1-yl)ethanone] | 100 to 1000
5 | O=C(c1cnc(Nc2nc(N3CCC[C@H]3CO)nn3cccc23)s1)N1CCC[C@H]1CO [Compound 467c, ((S)-2-(hydroxymethyl)pyrrolidin-1-yl)(2-((2-((S)-2-(hydroxymethyl)pyrrolidin-1-yl)pyrrolo[2,1-f][1,2,4]triazin-4-yl)amino)thiazol-5-yl)methanone] | > 1000
6 | COc1cc(-n2cnc(Nc3nc(N4CCC[C@H]4C(N)=O)nc4c3ccn4S(=O)(=O)c3ccc(C)cc3)c2)cc(OC)c1OC [Compound 142a, (S)-1-(7-tosyl-4-((1-(3,4,5-trimethoxyphenyl)-1H-imidazol-4-yl)amino)-7H-pyrrolo[2,3-d]pyrimidin-2-yl)pyrrolidine-2-carboxamide] | < 100
7 | COc1cc(-n2cnc(Nc3nc(N4CCC[C@H]4C(N)=O)nc4c3ncn4C)c2)cc(OC)c1OC [Compound 387a, (S)-1-(9-methyl-6-((1-(3,4,5-trimethoxyphenyl)-1H-imidazol-4-yl)amino)-9H-purin-2-yl)pyrrolidine-2-carboxamide] | < 100
8 | OC[C@@H]1CCCN1c1nc(Nc2cn(-c3ccccc3)cn2)c2occc2n1 [Compound 14b, (S)-(1-(4-((1-phenyl-1H-imidazol-4-yl)amino)furo[3,2-d]pyrimidin-2-yl)pyrrolidin-2-yl)methanol] | < 100
9 | COc1cc(-n2cnc(Nc3nc(N4CCC[C@@H]4C(N)=O)nc4sccc34)c2)cc(OC)c1OC [Compound 298a, (R)-1-(4-((1-(3,4,5-trimethoxyphenyl)-1H-imidazol-4-yl)amino)thieno[2,3-d]pyrimidin-2-yl)pyrrolidine-2-carboxamide] | < 100
10 | COc1cc(-n2cnc(Nc3nc(N4CCC[C@H]4CO)nc4cc(N5CCC[C@H]5CO)ccc34)c2)cc(OC)c1OC [Compound 269b, ((2S,2′S)-1,1′-(4-((1-(3,4,5-trimethoxyphenyl)-1H-imidazol-4-yl)amino)quinazoline-2,7-diyl)bis(pyrrolidine-2,1-diyl))dimethanol] | < 100
11 | COc1cc(-n2cnc(Nc3nc(N4CCC[C@H]4C(N)=O)c4cccc(OC(C)C)c4n3)c2)cc(OC)c1OC [Compound 205b, (S)-1-(8-isopropoxy-2-((1-(3,4,5-trimethoxyphenyl)-1H-imidazol-4-yl)amino)quinazolin-4-yl)pyrrolidine-2-carboxamide] | 100 to 1000
12 | COc1cc(-n2cnc(Nc3nc(N4CCC[C@H]4C(N)=O)nc4ccn(S(=O)(=O)c5ccc(C)cc5)c34)c2)cc(OC)c1OC [Compound 162a, (S)-1-(5-tosyl-4-((1-(3,4,5-trimethoxyphenyl)-1H-imidazol-4-yl)amino)-5H-pyrrolo[3,2-d]pyrimidin-2-yl)pyrrolidine-2-carboxamide] | 100 to 1000
13 | COc1cc(-n2cnc(Nc3nc(N4CCCC4)nc4c3CCN(C(=O)OC(C)(C)C)C4)c2)cc(OC)c1OC [Compound 184a, tert-butyl 2-(pyrrolidin-1-yl)-4-((1-(3,4,5-trimethoxyphenyl)-1H-imidazol-4-yl)amino)-5,6-dihydropyrido[3,4-d]pyrimidine-7(8H)-carboxylate] | < 100

Now from value to compound:

Row | IC50 [nM] | SMILES
14 | < 100 | COc1cc(-n2cnc(Nc3nc(N4CCC[C@@H]4CO)c4sccc4n3)c2)cc(OC)c1OC [Compound 310b, (R)-(1-(2-((1-(3,4,5-trimethoxyphenyl)-1H-imidazol-4-yl)amino)thieno[3,2-d]pyrimidin-4-yl)pyrrolidin-2-yl)methanol]
15 | < 100 | COc1cc(-n2cnc(Nc3nc(N4CCC[C@@H]4CO)nc4[nH]ccc34)c2)cc(OC)c1OC [Compound 308b, (R)-(1-(4-((1-(3,4,5-trimethoxyphenyl)-1H-imidazol-4-yl)amino)-7H-pyrrolo[2,3-d]pyrimidin-2-yl)pyrrolidin-2-yl)methanol]
16 | 100 to 1000 | COc1cc(OC)cc(-n2cnc(Nc3nc(N4CCC[C@H]4CO)c4cccn4n3)c2)c1 [Compound 242a, (S)-(1-(2-((1-(3,5-dimethoxyphenyl)-1H-imidazol-4-yl)amino)pyrrolo[2,1-f][1,2,4]triazin-4-yl)pyrrolidin-2-yl)methanol]
17 | < 100 | OC[C@@H]1CCCN1c1nc(Nc2cn(-c3cccc4c3OCO4)cn2)c2cccn2n1 [Compound 424e, (S)-(1-(4-((1-(benzo[d][1,3]dioxol-4-yl)-1H-imidazol-4-yl)amino)pyrrolo[2,1-f][1,2,4]triazin-2-yl)pyrrolidin-2-yl)methanol]
18 | > 1000 | CNC(=O)c1cc(C2CC2)cc(-n2cnc(Nc3nc(N4CCC[C@H]4CO)nn4cccc34)c2)c1 [Compound 468g, (S)-3-cyclopropyl-5-(4-((2-(2-(hydroxymethyl)pyrrolidin-1-yl)pyrrolo[2,1-f][1,2,4]triazin-4-yl)amino)-1H-imidazol-1-yl)-N-methylbenzamide]
19 | < 100 | OC[C@@H]1CCCN1c1nc(Nc2cn(-c3cnc4ccccc4c3)cn2)c2cccn2n1 [Compound 38c, (S)-(1-(4-((1-(quinolin-3-yl)-1H-imidazol-4-yl)amino)pyrrolo[2,1-f][1,2,4]triazin-2-yl)pyrrolidin-2-yl)methanol]
20 | 100 to 1000 | COc1cc(C)cc(-n2cnc(Nc3nc(N4CCC[C@H]4CO)c4cccn4n3)c2)c1 [Compound 257d, (S)-(1-(2-((1-(3-methoxy-5-methylphenyl)-1H-imidazol-4-yl)amino)pyrrolo[2,1-f][1,2,4]triazin-4-yl)pyrrolidin-2-yl)methanol]
21 | < 100 | OC[C@@H]1CCCN1c1nc(Nc2cn(-c3ccncc3)cn2)c2cccn2n1 [Compound 421e, (S)-(1-(4-((1-(pyridin-4-yl)-1H-imidazol-4-yl)amino)pyrrolo[2,1-f][1,2,4]triazin-2-yl)pyrrolidin-2-yl)methanol]
22 | 100 to 1000 | COc1cc(-n2cnc(Nc3cc(N4CCC[C@H]4CO)c4ccccc4n3)c2)cc(OC)c1OC [Compound 368a, (S)-(1-(2-(1-(3,4,5-trimethoxyphenyl)-1H-imidazol-4-ylamino)quinolin-4-yl)pyrrolidin-2-yl)methanol]
23 | < 100 | COc1cc(-n2cnc(Nc3nc(N4CCC[C@H]4CO)c4c(C)nn(C(C)C)c4n3)c2)cc(OC)c1OC [Compound 456c, (S)-(1-(1-isopropyl-3-methyl-6-((1-(3,4,5-trimethoxyphenyl)-1H-imidazol-4-yl)amino)-1H-pyrazolo[3,4-d]pyrimidin-4-yl)pyrrolidin-2-yl)methanol]
